According to patent US5747499A, “Anti-cancer compounds” (British Technology Group Limited, priority 1994, dated 1998):
Like-named read-outs stand apart in the source and are kept apart here.

Experiments:
thymidylate synthase = target: T1, thymidylate synthase (Mus musculus, UniProt P07607); experiment: Test (a): in vitro assay, inhibition of thymidylate synthase (partially purified from L1210 mouse leukaemia cells); assay type: biochemical
T1 construct: Thymidylate synthase may be obtained in partially purified form from L1210 mouse leukaemia cells; endogenous in cells; host or cells: L1210 mouse leukaemia cells
T1 sequence (P07607 whole entry): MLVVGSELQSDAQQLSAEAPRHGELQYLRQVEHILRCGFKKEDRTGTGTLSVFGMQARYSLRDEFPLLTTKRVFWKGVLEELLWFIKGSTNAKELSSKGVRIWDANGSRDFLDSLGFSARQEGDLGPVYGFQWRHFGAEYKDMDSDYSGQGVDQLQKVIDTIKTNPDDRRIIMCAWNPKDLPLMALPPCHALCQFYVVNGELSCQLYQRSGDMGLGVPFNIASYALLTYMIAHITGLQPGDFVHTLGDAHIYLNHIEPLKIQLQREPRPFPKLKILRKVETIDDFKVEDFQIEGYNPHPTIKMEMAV
From the text: (a) An in vitro assay which determines the ability of a test compound to inhibit the enzyme thymidylate synthase.

[1] = system: leukaemia cell line L1210; experiment: Test (b): inhibition of growth of the leukaemia cell line L1210 in cell culture; assay type: cell-based; settings: Mus musculus
From the text: (b) An assay which determines the ability of a test compound to inhibit the growth of the leukaemia cell line L1210 in cell culture. The test may be similar to that described in UK Patent Specification No. 2065653B and has been described by Jones et al. (J. Med. Chem., 1985, 28, 1468);

[2] = Cancer Treatment Reports, 1986, 70, 1335; cited from earlier work
[3] = system: human breast, ovarian and liver cancer; settings: in vivo; cited from earlier work
[4] = thymidylate synthase partially purified from L1210 mouse leukaemia cells, read-out: IC50 in test (a)

| Structure (SMILES) | IC50 (thymidylate synthase) [µM] | IC50 [1] [µM] | IC50 (thymidylate synthase; [4]) [µM] | symptoms of toxicity in humans [2] | activity against human breast, ovarian and liver cancer [3] |
| --- | --- | --- | --- | --- | --- |
| Cc1nc2cc3c(cc2c(=O)[nH]1)C(N(C)c1ccc(C(=O)N[C@H](C(=O)O)c2ccc(CC(=O)O)cc2)c(F)c1)CC3 (mixture of isomers) [Example 8, (2S)-2-{o-fluoro-p-[N-methyl-N-((6RS)-2-methyl-4-oxo-3,4,7,8-tetrahydro-6H-cyclopenta[g]quinazolin-6-yl)amino]benzamido}-2-[p-(carboxymethyl)phenyl]acetic acid] | 0.0076 | – | – | – | – |
| Cc1nc2cc3c(cc2c(=O)[nH]1)C(N(C)c1ccc(C(=O)N[C@@H](CCc2nnn(CC(=O)O)n2)C(=O)O)c(F)c1)CC3 (mixture of isomers) [Example 10, (2S)-2-{o-Fluoro-p-[N-methyl-N-((6RS)-2-methyl-4-oxo-3,4,7,8-tetrahydro-6H-cyclopenta[g]quinazolin-6-yl)amino]benzamido}-4-(2-carboxymethyltetrazol-5-yl)-butyric acid] | 0.0088 | 1.2 | – | – | – |
| Cc1nc2cc3c(cc2c(=O)[nH]1)C(N(C)c1ccc(C(=O)N[C@@H](CCc2nnnn2CC(=O)O)C(=O)O)c(F)c1)CC3 (mixture of isomers) [Example 11, (2S)-2-{o-Fluoro-p-[N-methyl-N-((6RS)-2-methyl-4-oxo-3,4,7,8-tetrahydro-6H-cyclopenta[g]quinazolin-6-yl)amino]benzamido}-4-(1-carboxymethyltetrazol-5-yl)-butyric acid] | 0.0148 | 23 | – | – | – |
| Cc1nc2cc3c(cc2c(=O)[nH]1)[C@H](N(C)c1ccc(C(=O)N[C@@H](CCC(=O)N[C@@H](C(=O)O)c2ccc(CC(=O)O)cc2)C(=O)O)c(F)c1)CC3 (mixture of isomers) [Example 12, (2RS)-2-{N-{N-{o-Fluoro-p-[N-methyl-N-((6RS)-2-methyl-4-oxo-3,4,7,8-tetrahydro-6H-cyclopenta[g]quinazolin-6-yl)amino]benzoyl}-L-γ-glutamyl}amino}-2-[p-(carboxymethyl)phenyl]acetic acid] | 0.004 | 3.9 | – | – | – |
| C#CCN(c1ccc(C(=O)N[C@@H](CCC(=O)N(C)[C@@H](CCC(=O)O)C(=O)O)C(=O)O)cc1)C1CCc2cc3nc(C)[nH]c(=O)c3cc21 (mixture of isomers) [Example 13, N-{p-[N-((6RS)-2-Methyl-4-oxo-3,4,7,8-tetrahydro-6H-cyclopenta[g]quinazolin-6-yl)-N-(prop-2-ynyl)amino]benzoyl}-L-γ-glutamyl-N-methyl-L-glutamic acid] | 0.00142 | 2.3 | – | – | – |
| C#CCN(c1ccc(C(=O)N[C@@H](CCc2nnnn2CCC(=O)O)C(=O)O)cc1)C1CCc2cc3nc(C)[nH]c(=O)c3cc21 (mixture of isomers) [Example 14, (2S)-2-{p-[N-((6RS)-2-methyl-4-oxo-3,4,7,8-tetrahydro-6H-cyclopenta[g]quinazolin-6-yl)-N-(prop-2-ynyl)amino]benzamido}-4-[1-(2-carboxyethyl)tetrazol-5-yl]butyric acid] | 0.00184 | 0.63 | – | – | – |
| C#CCN(c1ccc(C(=O)N[C@@H](CCC(=O)N[C@@H](CCc2nnnn2CC(=O)O)C(=O)O)C(=O)O)cc1)C1CCc2cc3nc(C)[nH]c(=O)c3cc21 (mixture of isomers) [Example 15, (2S)-2-{N-{N-{p-[N-((6RS)-2-Methyl-4-oxo-3,4,7,8-tetrahydro-6H-cyclopenta[g]quinazolin-6-yl)-N-(prop-2-ynyl)amino]benzoyl}-L-γ-glutamyl}amino}-4-(1-carboxymethyltetrazol-5-yl)butyric acid] | – | 7.2 | 0.00108 | – | – |
| C#CCN(c1ccc(C(=O)N[C@@H](CCCS(=O)(=O)c2nnc[nH]2)C(=O)O)cc1)C1CCc2cc3nc(C)[nH]c(=O)c3cc21 (mixture of isomers) [Example 17, (2S)-2-{p-[N-((6RS)-2-methyl-4-oxo-3,4,7,8-tetrahydro-6H-cyclopenta[g]quinazolin-6-yl)-N-(prop-2-ynyl)amino]benzamido}-5-(1H-1,2,4-triazol-3-ylsulphonyl)pentanoic acid] | – | 0.25 | 0.00158 | – | – |
| C#CCN(c1ccc(C(=O)N[C@@H](CCC(=O)N[C@H](CCC(=O)O)c2nnn[nH]2)C(=O)O)cc1)C1CCc2cc3nc(C)[nH]c(=O)c3cc21 (mixture of isomers) [Example 18, (4R)-4-{N-{N-{p-[N-((6RS)-2-Methyl-4-oxo-3,4,7,8-tetrahydro-6H-cyclopenta[g]quinazolin-6-yl)-N-(prop-2-ynyl)amino]benzoyl}-L-γ-glutamyl}amino}-4-(tetrazol-5-yl)butyric acid] | 0.00108 | 0.86 | – | – | – |
| C#CCN(c1ccc(C(=O)N[C@@H](CCC(=O)N[C@H](C)C(=O)O)C(=O)O)cc1)C1CCc2cc3nc(C)nc(O)c3cc21 (mixture of isomers) [Example 19, N-{N-{p-[N-((6RS)-2-methyl-4-oxo-3,4,7,8-tetrahydro-6H-cyclopenta[g]quinazolin-6-yl)-N-(prop-2-ynyl)amino]benzoyl}-L-γ-glutamyl}-D-alanine] | – | 0.52 | 0.00184 | – | – |
| C#CCN(Cc1ccc2nc(N)[nH]c(=O)c2c1)c1ccc(C(=O)N[C@@H](CCC(=O)O)C(=O)O)cc1 [CB3717] | – | – | – | shows symptoms of toxicity in humans, particularly in relation to the liver and kidneys | promising activity against human breast, ovarian and liver cancer |
| C#CCN(c1ccc(C(=O)N[C@@H](CCc2nnnn2CC(=O)N[C@H](C)C(=O)O)C(=O)O)cc1)C1CCc2cc3nc(C)nc(O)c3cc21 (some centres unmarked) [Example 16] | 0.0034 | 10 | – | – | – |
